According to EP4800018A1, “PAN-KRAS INHIBITOR AND USE THEREOF IN MEDICINES” (Betta Pharmaceuticals Co., Ltd., priority 2023, dated 2025):
Read-outs that look alike come from different tables or passages of the source.

Assay: PK Study of Compounds in Mice
Assay type: in vivo, Female ICR mice
Conditions: mean; for Cmax: read-out: C0/Cmax
Method: The test compound was mixed with the vehicle (10% DMSO/5% Solutol/85% physiological saline), vortexed and sonicated to prepare a clear 0.2 mg/mL intravenous injection solution. The test compound was mixed with the vehicle (20% PEG400/10% Solutol/70% pH 4.5 acetate buffer), vortexed and sonicated to prepare a clear 1 mg/mL oral solution. Female ICR mice aged 6 to 7 weeks were selected and administered the test compound via intravenous (IV) and oral (PO) routes, respectively. Whole blood samples were collected at 5 min, 15 min, 30 min, 1 h, 2 h, 4 h, 7 h, and 24 h for the intravenous route, and at 15 min, 30 min, 1 h, 2 h, 4 h, 7 h, and 24 h for the oral route. Drug concentrations were analyzed by LC-MS/MS method, and pharmacokinetic parameters were calculated using Phoenix WinNonlin software (Pharsight, USA).

[1] = female, ICR, mouse, whole blood, IV 1 mg/kg (n=3)
[2] = female, ICR, mouse, whole blood, PO 10 mg/kg (n=3)

Structure (SMILES): CC1OCCCn2c(c3c4cc(ccc42)-c2csc(n2)CC(NC(=O)C2C(C)C2C)C(=O)N2NC(C(=O)OCC(C)(C)C3)C3CC2C3)-c2cc(N3CCN(C)CC3)cnc21 [Example 186, (1r,2R,3S)-2,3-dimethyl-N-((1^5S,6^4S,4S,Z)-1^5,10,10-trimethyl-1^2-(4-methylpiperazin-1-yl)-5,7-dioxo-1^8,1^9-dihydro-1^5H,1^7H-8-oxa-6^2,6^3-diaza-1(13,15)-pyrido[3',2':7,8][1,5]oxazonino[5,6-a]indola-2(4,2)-thiazola-6(2,4)-bicyclo[3.1.1]heptanacycloundecaphane-4-yl)cyclopropane-1-carbox amide]
- F (PO 10 mg/kg vs IV 1 mg/kg (n=3)): 31.1
- AUC(0-t) [1]: 3260 ng·h/mL
- clearance [1]: 4.45 mL/min/kg
- half-life [1]: 9.31 h
- Cmax [1]: 571 ng/mL
- Vd (female, ICR, mouse, whole blood, IV 1 mg/kg (n=3), read-out: Vss): 3.09 L/kg
- AUC(0-t) [2]: 10100 ng·h/mL
- Tmax [2]: 4 h
- Cmax [2]: 679 ng/mL
